One series deals with ob/ob mouse. The series is described as follows: Antidiabetic and hypolipidaemic effect in the ob/ob mouse. The class given is in vivo. To be noted: for reduction of glycaemia: glycaemia 24 hours after the final administration. From the text: Mutations in laboratory animals and also different sensitivities to dietary regimens have allowed the development of animal models having non-insulin dependent diabetes and hyperlipidaemia associated with obesity and with resistance to insulin.
Genetic mice models (ob/ob) (Diabetes, 1982, 31 (1), 1-6) and Zucker (fa/fa) rats have been developed by various laboratories in order to understand the physiopathology of those diseases and test the effectiveness of new antidiabetic compounds (Diabetes, 1983, 32, 830-838).
The 10-week-old female ob/ob mouse (Harlan) is used for the in vivo tests. The animals are kept in a light-darkness cycle of 12 hours at 25° C. The mouse has a basal hyperglycaemia of 2 g/l. The animals are randomly selected in terms of their glycaemia to form groups of six. The compounds tested by the intraperitoneal route are dissolved in a mixture of dimethyl sulphoxide (10%) and solutol (15%) to be administered at 10 mg/kg in a volume of 2.5 ml/kg twice per day for four days. By the per os route, the compounds are tested at 30 mg/kg administered in a volume of 2.5 ml/kg of 1%, HEC twice per day for four days. The control groups receive the solvents under the same conditions as the treated groups. The activity of the products is evaluated by measuring glycaemia 24 hours after the final administration and by measuring body weight daily.

Results on four compounds are retold here after patent US6919362B2, “Heterocyclic derivatives, preparation method and pharmaceutical compositions containing same” (Les Laboratoires Servier, priority 2000, dated 2005).

For orientation: melting point means the temperature of the solid-liquid transition.

Take `COC(=O)C(Cc1ccc(OCCn2c(=O)sc3cc(C(=O)c4ccccc4)ccc32)cc1)C(=O)OC` [Example 18, Dimethyl 2-{4-[2-(6-benzoyl-2-oxo-1,3-benzothiazol-3(2H)-yl)-ethoxy]benzyl}malonate]: the reduction of glycaemia in the series with ob/ob mouse (10 mg/kg i.p. twice per day for four days) was determined as 45%; with ob/ob mouse (30 mg/kg per os twice per day for four days) it was 43%.
As for `COC(=O)C(=Cc1ccc(OCCn2c(=O)sc3cc(NC(=O)c4ccccc4)ccc32)cc1)C(=O)OC` [Example 76, Dimethyl 2-{4-[2-(6-(benzoylamino)-2-oxo-1,3-benzothiazol-3(2H)-yl)ethoxy]benzylidene}malonate], the melting point is 186 to 190 °C.
On the same count and under the same terms, the result for `COC(=O)C(=Cc1ccc(OCCn2c(=O)sc3cc(C(=O)Nc4ccccc4)ccc32)cc1)C(=O)OC` [Example 84, Dimethyl 2-{4-[2-(6-(anilinocarbonyl)-2-oxo-1,3-benzothiazol-3(2H)-yl)ethoxy]benzylidene}malonate] reads 102 to 105 °C.
For the compound `CN(CCOc1ccc(CC2SC(=O)NC2=O)cc1)c1ccccn1` (centres unmarked) [rosiglitazone, reference compound], the “variation in body weight” value in the series with ob/ob mouse (ob/ob mouse, in four days, body weight measured daily) is reported as “+4%”.
